Laboratory results taken from US10975126B1 (priority 2020, dated 2021).
No end group written: not given here.

Tested on: MERS-CoV
Format: cell-based, MERS-CoV (CoV/KOR/KNIH/002_05_2015) in Vero cells

## SLTQINWTLLDLTYEMESLQQVVKALNEYYIDLKEL [Peptide 5]
  inhibition of MERS-CoV / decrease in plaque formation (in words): strong inhibition
